Data on 2 compounds can be found in patent US20080221063A1, “Heterocyclic Sulfonamide Derivatives As Inhibitors Of Factor Xa” (ASTRAZENECA AB, priority 2005, published 2008).

The target of the experiment is T1, human FXa (Homo sapiens, UniProt P00742).
T1 construct: FXa solution (human FXa, Haematologic Technologies Inc., Essec Junction, Vt., USA); purchased Haematologic Technologies Inc
The experiment is described as follows: Measurement of Factor Xa Inhibition (chromogenic substrate method). Type of experiment: biochemical. The conditions noted are these: chromogenic substrate S-2765, 40 min incubation at 37° C., pH 7.4. How it is done:
a) Measurement of Factor Xa Inhibition
The FXa inhibitor potency was measured with a chromogenic substrate method, in a Plato 3300 robotic microplate processor (Rosys AG, CH-8634 Hombrechtikon, Switzerland), using 96-well, half-volume microtiter plates (Costar, Cambridge, Mass., USA; Cat No 3690). Stock solutions of test substance in DMSO (72 μL), 10 mmol/L, alternatively 1 mmol/L were diluted serially 1:3 (24+48 μL) with DMSO to obtain ten different concentrations, which were analyzed as samples in the assay, together with controls and blanks. As control sample melagatran was analysed. The dilutions of each test substance were analyzed consecutively, row-wise on the microtiter plate, with wasp cycles between substances to avoid cross-contamination. […] The final assay concentrations were: test substance 0.0068-133, respectively 0.00068-13.3 μmol/L, S-2765 0.40 mmol/L (KM=0.25 mmol/L) and FXa […]. The linear absorbance increase at 405 n=during 40 min incubation at 37° C. was used for calculation of percent inhibition for the test samples, as compared to references without inhibitor and/or enzyme. […]

T1 sequence (P00742 235-488 limits assumed): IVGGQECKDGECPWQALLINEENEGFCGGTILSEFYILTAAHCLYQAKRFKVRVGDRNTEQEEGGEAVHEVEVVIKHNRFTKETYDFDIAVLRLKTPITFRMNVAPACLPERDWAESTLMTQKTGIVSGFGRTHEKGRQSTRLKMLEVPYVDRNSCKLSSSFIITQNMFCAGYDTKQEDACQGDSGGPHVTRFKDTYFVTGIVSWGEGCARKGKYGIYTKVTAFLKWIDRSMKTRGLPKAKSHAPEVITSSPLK
T1 sequence (P00742 41-179 partner limits assumed): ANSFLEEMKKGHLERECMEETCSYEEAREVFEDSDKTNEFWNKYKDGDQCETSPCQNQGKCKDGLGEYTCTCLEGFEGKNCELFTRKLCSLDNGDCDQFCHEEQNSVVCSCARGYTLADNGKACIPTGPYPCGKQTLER

The IC50 is the concentration needed to halve the response being measured. Low values mean greater potency, high ones weaker potency. In turn, `CCNC(=O)C1CN(S(=O)(=O)c2ccc3c(Cl)c[nH]c3c2)CC(=O)N1CC1CCN(c2ccc(=O)n(C)n2)CC1` (centres unmarked) [Example 4, 4-(3-Chloro-1H-indole-6-sulfonyl)-1-[1-(1-methyl-6-oxo-1,6-dihydro-pyridazin-3-yl)-piperidin-4-ylmethyl]-6-oxo-piperazine-2-carboxylic acid ethylamide] gave an IC50 of 5 nM.

For `CC(C)OC(=O)C1CN(S(=O)(=O)c2ccc3c(Cl)c[nH]c3c2)CC(=O)N1CC1CCN(c2ccc(=O)n(C)n2)CC1` (centres unmarked) [Example 13, 4-(3-Chloro-1H-indole-6-sulfonyl)-1-[1-(1-methyl-6-oxo-1,6-dihydro-pyridazin-3-yl)-piperidin-4-ylmethyl]-6-oxo-piperazine-2-carboxylic acid isopropyl ester], the midpoint of inhibition, the IC50, lay at 2.3 nM.
